Counter-ions that a name gives are not always drawn.

The target of the test is T1, full length SGK1 (Homo sapiens, UniProt O00141).
T1 construct: 125 μM full length SGK1 (Life Technologies Part #PR7358A); purchased Life Technologies PR7358A
T1 sequence (O00141 1-431): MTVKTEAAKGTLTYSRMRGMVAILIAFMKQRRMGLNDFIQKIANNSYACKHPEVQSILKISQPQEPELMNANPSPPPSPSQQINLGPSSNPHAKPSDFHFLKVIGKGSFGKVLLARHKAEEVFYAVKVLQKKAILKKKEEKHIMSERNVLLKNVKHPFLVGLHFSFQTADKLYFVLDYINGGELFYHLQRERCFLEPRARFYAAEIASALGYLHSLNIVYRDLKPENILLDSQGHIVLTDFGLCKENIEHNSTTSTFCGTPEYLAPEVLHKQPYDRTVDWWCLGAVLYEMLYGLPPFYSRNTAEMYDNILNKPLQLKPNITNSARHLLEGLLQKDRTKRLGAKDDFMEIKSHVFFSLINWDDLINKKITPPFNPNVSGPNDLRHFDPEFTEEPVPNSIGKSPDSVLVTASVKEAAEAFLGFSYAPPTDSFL
Nature of the test: SGK1 inhibition Assay A (Caliper LabChip electrophoretic separation of fluorescent peptide substrate and phosphorylated product). The test is classed as biochemical. Particulars: Assay A; 20 μM ATP, 40 min incubation; read-out: SGK1 IC50.

On to `Cc1ccc(C(=O)N[C@@H]2CCCN(c3c(C#N)c(-c4ccc(S(C)(=O)=O)cc4)n4ncnc(N)c34)C2)s1` [Example 197, N-[(3R)-1-[4-amino-6-cyano-7-(4-methanesulfonylphenyl)pyrrolo[2,1-f][1,2,4]triazin-5-yl]piperidin-3-yl]-5-methylthiophene-2-carboxamide], for which the IC50 was 30 nM. With `Cc1cc(N2CCOCC2)c(C(=O)N[C@@H]2CCCN(c3cc(-c4ccnc(F)c4)n4ncnc(N)c34)C2)s1` [Example 198, (R)—N-(1-(4-amino-7-(2-fluoropyridin-4-yl)pyrrolo[2,1-f][1,2,4]triazin-5-yl)piperidin-3-yl)-5-methyl-3-morpholinothiophene-2-carboxamide, 2 TFA], the half-inhibitory concentration (IC50) was 2 nM. The value for `Cc1cc(N2CCN(C)CC2)c(C(=O)N[C@@H]2CCCN(c3cc(-c4ccnc(F)c4)n4ncnc(N)c34)C2)s1` [Example 199, (R)—N-(1-(4-amino-7-(2-fluoropyridin-4-yl)pyrrolo[2,1-f][1,2,4]triazin-5-yl)piperidin-3-yl)-5-methyl-3-(4-methylpiperazin-1-yl)thiophene-2-carboxamide, 3 TFA] was 2 nM. Consider `Cc1cc(CN2CCN(C)CC2)c(C(=O)N[C@@H]2CCCN(c3cc(-c4ccnc(F)c4)n4ncnc(N)c34)C2)s1` [Example 200, (R)—N-(1-(4-amino-7-(2-fluoropyridin-4-yl)pyrrolo[2,1-f][1,2,4]triazin-5-yl)piperidin-3-yl)-5-methyl-3-((4-methylpiperazin-1-yl)methyl)thiophene-2-carboxamide], for which the 50% inhibitory concentration (IC50) was determined as 15 nM.

Regarding `Cc1cc(COCCN2CCOCC2)c(C(=O)N[C@@H]2CCCN(c3cc(-c4ccnc(F)c4)n4ncnc(N)c34)C2)s1` [Example 201, (R)—N-(1-(4-amino-7-(2-fluoropyridin-4-yl)pyrrolo[2,1-f][1,2,4]triazin-5-yl)piperidin-3-yl)-5-methyl-3-((2-morpholinoethoxy)methyl)thiophene-2-carboxamide, 2 TFA], the IC50 worked out at 3 nM. With `Cc1cc(CO)c(C(=O)N[C@@H]2CCCN(c3cc(-c4ccnc(F)c4)n4ncnc(N)c34)C2)s1` [Example 202, (R)—N-(1-(4-amino-7-(2-fluoropyridin-4-yl)pyrrolo[2,1-f][1,2,4]triazin-5-yl)piperidin-3-yl)-3-(hydroxymethyl)-5-methylthiophene-2-carboxamide], the IC50 was found to be 12 nM. For the molecule `Cn1cc(-c2cc(N3CCC[C@@H](NC(=O)c4ccc(Cl)s4)C3)c3c(N)ncnn23)c(C2CC2)n1` [Example 203, (R)—N-(1-(4-amino-7-(3-cyclopropyl-1-methyl-1H-pyrazol-4-yl)pyrrolo[2,1-f][1,2,4]triazin-5-yl)piperidin-3-yl)-5-chlorothiophene-2-carboxamide, TFA], the IC50 amounted to 19 nM. The value for `CC(=O)c1ccc(-c2cc(N3CCC[C@@H](NC(=O)c4ccc(Cl)s4)C3)c3c(N)ncnn23)cc1` [Example 204, (R)-N-(1-(7-(4-acetylphenyl)-4-aminopyrrolo[2,1-f][1,2,4]triazin-5-yl)piperidin-3-yl)-5-chlorothiophene-2-carboxamide, TFA] was 5 nM; that for `Nc1ncnn2c(-c3ccnc4[nH]ccc34)cc(N3CCC[C@@H](NC(=O)c4ccc(Cl)s4)C3)c12` [Example 205, (R)-N-(1-(4-amino-7-(1H-pyrrolo[2,3-b]pyridin-4-yl)pyrrolo[2,1-f][1,2,4]triazin-5-yl)piperidin-3-yl)-5-chlorothiophene-2-carboxamide, TFA] was 7 nM. For the molecule `Nc1ncnn2c(-c3cc(F)c(O)c(F)c3)cc(N3CCC[C@@H](NC(=O)c4ccc(Cl)s4)C3)c12` [Example 206, (R)-N-(1-(4-amino-7-(3,5-difluoro-4-hydroxyphenyl)pyrrolo [2,1-f][1,2,4]triazin-5-yl)piperidin-3-yl)-5-chlorothiophene-2-carboxamide], the IC50 amounted to 12 nM. In the case of `COc1cc(-c2cc(N3CCC[C@@H](NC(=O)c4ccc(Cl)s4)C3)c3c(N)ncnn23)ccc1C(N)=O` [Example 207, (R)-N-(1-(4-amino-7-(4-carbamoyl-3-methoxyphenyl)pyrrolo [2,1-f][1,2,4]triazin-5-yl)piperidin-3-yl)-5-chlorothiophene-2-carboxamide], the IC50 was 4 nM.

Consider `CC(=O)Nc1cccc(-c2cc(N3CCC[C@@H](NC(=O)c4ccc(Cl)s4)C3)c3c(N)ncnn23)c1` [Example 208, (R)-N-(1-(7-(3-acetamidophenyl)-4-aminopyrrolo[2,1-f][1,2,4]triazin-5-yl)piperidin-3-yl)-5-chlorothiophene-2-carboxamide], for which the IC50 amounted to 20 nM.

Take `Cn1nccc1-c1cc(N2CCC[C@@H](NC(=O)c3ccc(Cl)s3)C2)c2c(N)ncnn12` [Example 210, (R)-N-(1-(4-amino-7-(1-methyl-1H-pyrazol-5-yl)pyrrolo[2,1-f][1,2,4]triazin-5-yl)piperidin-3-yl)-5-chlorothiophene-2-carboxamide, TFA]: the half-maximal inhibitory concentration (IC50) was 9 nM. Take `Nc1ncnn2c(-c3ccn[nH]3)cc(N3CCC[C@@H](NC(=O)c4ccc(Cl)s4)C3)c12` [Example 211, (R)-N-(1-(4-amino-7-(1H-pyrazol-5-yl)pyrrolo[2,1-f][1,2,4]triazin-5-yl)piperidin-3-yl)-5-chlorothiophene-2-carboxamide]: the concentration for half-maximal inhibition (IC50) stood at 3 nM. Consider `N#Cc1ccc(-c2cc(N3CCC[C@@H](NC(=O)c4ccc(Cl)s4)C3)c3c(N)ncnn23)s1` [Example 212, (R)-N-(1-(4-amino-7-(5-cyanothiophen-2-yl)pyrrolo[2,1-f][1,2,4]triazin-5-yl)piperidin-3-yl)-5-chlorothiophene-2-carboxamide, TFA], for which the IC50 turned out to be 6 nM.

As to `COc1cnccc1-c1cc(N2CCC[C@@H](NC(=O)c3ccc(Cl)s3)C2)c2c(N)ncnn12` [Example 213, (R)-N-(1-(4-amino-7-(3-methoxypyridin-4-yl)pyrrolo[2,1-f][1,2,4]triazin-5-yl)piperidin-3-yl)-5-chlorothiophene-2-carboxamide, TFA], the IC50 was found to be 5 nM. In the case of `Nc1ncnn2c(-c3cccc(CO)c3)cc(N3CCC[C@@H](NC(=O)c4ccc(Cl)s4)C3)c12` [Example 214, (R)-N-(1-(4-amino-7-(3-(hydroxymethyl)phenyl)pyrrolo[2,1-f][1,2,4]triazin-5-yl)piperidin-3-yl)-5-chlorothiophene-2-carboxamide], the IC50 amounted to 11 nM.

As to `COc1cc(-c2cc(N3CCC[C@@H](NC(=O)c4ccc(Cl)s4)C3)c3c(N)ncnn23)ccn1` [Example 215, (R)-N-(1-(4-amino-7-(2-methoxypyridin-4-yl)pyrrolo[2,1-f][1,2,4]triazin-5-yl)piperidin-3-yl)-5-chlorothiophene-2-carboxamide, TFA], the IC50 turned out to be 6 nM. The result for `Cn1cc(-c2cc(N3CCC[C@@H](NC(=O)c4ccc(Cl)s4)C3)c3c(N)ncnn23)cn1` [Example 216, (R)-N-(1-(4-amino-7-(1-methyl-1H-pyrazol-4-yl)pyrrolo[2,1-f][1,2,4]triazin-5-yl)piperidin-3-yl)-5-chlorothiophene-2-carboxamide, TFA] reads 26 nM; that for `Cc1nn(C)cc1-c1cc(N2CCC[C@@H](NC(=O)c3ccc(Cl)s3)C2)c2c(N)ncnn12` [Example 217, (R)-N-(1-(4-amino-7-(1,3-dimethyl-1H-pyrazol-4-yl)pyrrolo[2,1-f][1,2,4]triazin-5-yl)piperidin-3-yl)-5-chlorothiophene-2-carboxamide], 62 nM. As to `CC(C)(O)c1ccc(-c2cc(N3CCC[C@@H](NC(=O)c4ccc(Cl)s4)C3)c3c(N)ncnn23)cc1` [Example 218, (R)-N-(1-(4-amino-7-(4-(2-hydroxypropan-2-yl)phenyl)pyrrolo[2,1-f][1,2,4]triazin-5-yl)piperidin-3-yl)-5-chlorothiophene-2-carboxamide, TFA], the IC50 turned out to be 233 nM. Consider `Nc1ncnn2c(-c3ccc4c(c3)C(=O)NC4)cc(N3CCC[C@@H](NC(=O)c4ccc(Cl)s4)C3)c12` [Example 219, (R)-N-(1-(4-amino-7-(3-oxoisoindolin-5-yl)pyrrolo[2,1-f][1,2,4]triazin-5-yl)piperidin-3-yl)-5-chlorothiophene-2-carboxamide], for which the concentration for half-maximal inhibition (IC50) turned out to be 68 nM. The value for `Nc1ncnn2c(-c3ccnc(C(F)(F)F)c3)cc(N3CCC[C@@H](NC(=O)c4ccc(Cl)s4)C3)c12` [Example 220, (R)-N-(1-(4-amino-7-(2-(trifluoromethyl)pyridin-4-yl)pyrrolo[2,1-f][1,2,4]triazin-5-yl)piperidin-3-yl)-5-chlorothiophene-2-carboxamide] was 7 nM. As for `Nc1ncnn2c(-c3ccc(CN4CCOCC4)cc3)cc(N3CCC[C@@H](NC(=O)c4ccc(Cl)s4)C3)c12` [Example 221], the IC50 is 800 nM. Regarding `COc1cc(-c2cc(N3CCC[C@@H](NC(=O)c4ccc(Cl)s4)C3)c3c(N)ncnn23)ccc1C#N` [Example 222, (R)-N-(1-(4-amino-7-(4-cyano-3-methoxyphenyl)pyrrolo [2,1-f][1,2,4]triazin-5-yl)piperidin-3-yl)-5-chlorothiophene-2-carboxamide, TFA], the half-inhibitory concentration (IC50) is 43 nM. In the case of `Nc1ncnn2c(-c3ccc(N4CCOCC4)cc3)cc(N3CCC[C@@H](NC(=O)c4ccc(Cl)s4)C3)c12` [Example 223, (R)-N-(1-(4-amino-7-(4-morpholinophenyl)pyrrolo [2,1-f][1,2,4]triazin-5-yl)piperidin-3-yl)-5-chlorothiophene-2-carboxamide, TFA], the half-inhibitory concentration (IC50) turned out to be 199 nM.

Source of the values: US20260250290A1 (BRISTOL-MYERS SQUIBB COMPANY, priority 2023, published 2026).
